SMILES strings stand for the structures.

For data set [1], the system named is DU145 human prostate carcinoma xenografts. In words: DU145 xenografts in nude mice. As to conditions: 440 mg/kg daily. Type of data set: in vivo. Here is the method:
The dosage of sodium stibogluconate corresponds to approximately 440 mg Sb/kg body weight (average mouse body weight 27 g), substantially higher than the standard therapeutic dose of 20 mg Sb/kg and the high dose (143 mg Sb/kg) that was clinically used by accident without serious toxicity. This dose of sodium stibogluconate was based on a previous observation in a pilot study that mice could tolerate daily dose of 20 mg Sb (approximately 700-800 mg Sb/kg). […] In light of the relatively rapid rate of clearance of the drug in vivo, 440 mg Sb/kg dosage was used to ensure the detection of the effectiveness of the drug for this initial study.
For each of the cell lines, each of 16 mice received subcutaneous injection at the chest area of 3×10^6 cells/site (WM9) or 2×10^6 cells/site (DU145), two sites/mouse, on day 0. Mice were separated into four groups of four to receive treatment, injected into the thigh area starting on day 2. Tumor size was measured with a caliper to determine the two perpendicular diameters of each tumor. Tumor volume was calculated using the method of the NCI (length×width 2 in millimeters/2=volume in cubic millimeters). […]

For data set [2], the system named is NB4 cells. In words: NB4 proliferation, MTT assay. The settings on record: 12.5-400 μg/ml. Type of data set: cell-based, human. The method, then: The NB4 cell line (Lanotte et al., Blood 77, 1080 (1991)) was a gift from Dr. Dan Lindner of the Cleveland Clinic Foundation. […] and U937 cell lines were purchased from American Type Culture Collection (Rockville, Md.). These human […] cell lines were maintained in RPMI 1640 medium supplemented with 10% fetal calf serum (FCS). For cell proliferation assays, cells were cultured at 37° C. in 10% FCS medium containing various amounts of sodium stibogluconate for 6 days. The cell numbers in the cultures were determined by an MTT assay as described previously in Mosmann, J. Immunol. Methods 65, 55 (1983).
On the technique in general: Formazan colour is commonly taken as a measure of viable cells.

In data set [3] the test system is NB4 cells. In words: NB4 Annexin V/propidium iodide assay. Type of data set: cell-based, human. The settings on record: 250 μg/ml, 6 days. The method, then: Annexin V staining of exposed membrane phospholipid phosphatidylserine (PS) was done using the Annexin V assay kit (Pharmingen, San Diego, Calif.). […] Cells were then washed in PBS twice and stained in binding buffer (10 mM Hepes, pH 7.4; 140 mM NaCl; 2.5 mM CaCl2) containing Annexin V-FITC and propidium iodide for 15 min. The reaction was stopped by adding 10 volumes of binding buffer and analyzed by FACS (Becton Dickinson Facsvantage).

The test system of data set [4] is Renca tumor-infiltrating immune cells. In words: Renca tumor-infiltrating immune cells, immunohistochemistry. Also noted: species or system Balb/c mice. As to conditions: mouse, in vivo. Here is the method:
Major internal organs and Renca tumors harvested from mice were fixed in 10% formalin or snap frozen in liquid nitrogen. H & E-stained tissue sections of the fixed samples were prepared and evaluated by microscopy as described previously (Yi, T., M. K. Pathak, D. J. Lindner, M. E. Ketterer, C. Farver, and E. C. Borden. 2002. Anticancer activity of sodium stibogluconate in synergy with IFNs. J Immunol 169:5978). Preparation of frozen tissue sections and immunohistochemistry were performed following established procedures (Joliat, M. J., P. A. Lang, B. L. Lyons, L. Burzenski, M. A. Lynes, T. Yi, J. P. Sundberg, and L. D. Shultz. 2002. Absence of CD5 dramatically reduces progression of pulmonary inflammatory lesions in SHP-1 protein-tyrosine phosphatase-deficient ‘viable motheaten’ mice. J Autoimmun 18:105). The antibodies used for immunohistochemistry were anti-CD4 (rat mAb, clone GK1.5, BD Biosciences, Franklin Lakes, N.J.), anti-CD8 (rat mAb, clone 53-6.7.5, BD Biosciences, Franklin Lakes, N.J.), anti-F4/80 (rat mAb, clone A3-1, Serotec, Oxford, UK) and anti-Asialo GM1 (rabbit polyclonal, Cedarlane, Hornby, Canada). […] Tissue sections of 2 mice/group were evaluated. The number of immune cells was semi-quantified based on the following scheme: […], 0-1 positive cells/40×field; +, 2-5 positive cells/40×field; ++, 6-10 positive cells/40×field, etc.

A further data set addresses T1, intracellular Flag-PRL-3 (Homo sapiens, UniProt O75365).
T1 construct: expressed in transfected cells; host or cells: NIH3T3 transfectants, pBabepuro vector
Briefly: Immunocomplex PTPase assay, Flag-PRL-3 NIH3T3 transfectants. The format is cell-based, mouse. As to conditions: 5 min treatment. The method, then:
Immunocomplex PTPase assays were performed to assess the effects of sodium stibogluconate on intracellular PTPases. Cells were untreated or treated with sodium stibogluconate for 5 minutes, washed with fresh medium and then lysed in cold lysis buffer (50 mM Tris, pH 7.4; 150 mM NaCl; 1% NP40; 2 mM PMSF; 20, g/ml of Aprotinin). The lysates were incubated with an anti-Flag antibody in immunoprecipitation assays. The immunocomplexes were collected with protein G sepharose beads (Pharmacia) and washed in cold lysis buffer for 4 times. […] 100 µL of malachite green solution (UBI) was added to each reaction prior to measurement of OD660 to quantify the amounts of free phosphate cleaved by the PTPases from the peptide substrate (Pathak et al., J. Imumol. 167, 3391 (2001)). The remaining 10% contents of individual samples were analyzed by SDS-PAGE/Western blotting to quantify the relative amounts of the phosphatase proteins. […]
The effects of sodium stibogluconate on intracellular PTPases were assessed using NIH3T3 or WM9 transfectants. […]

T1 sequence (O75365 whole entry): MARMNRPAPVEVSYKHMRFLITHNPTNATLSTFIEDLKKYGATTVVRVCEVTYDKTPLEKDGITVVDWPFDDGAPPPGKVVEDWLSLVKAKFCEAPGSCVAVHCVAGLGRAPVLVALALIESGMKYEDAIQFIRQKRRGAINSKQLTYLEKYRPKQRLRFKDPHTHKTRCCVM

With `O.O.O.O.O.O.O.O.O.O=C([O-])[C@@H]1[O][Sb]2([O-])([O][Sb]34([OH])[O][C@H]([C@H](O)CO)[C@H]([O]3)[C@H](C(=O)[O-])[O]4)[O][C@H]([C@H](O)CO)[C@@H]1[O]2.[Na+].[Na+].[Na+]` [sodium stibogluconate], the “histology of major organs” value in data set [1] is reported as “unremarkable”. For the same compound, the “survival of DU145-inoculated mice” value in data set [1] (until the end of the study) was “survived”. In addition, the “proliferation of NB4 cells” value in the data set on NB4 cells [2] is “markedly inhibited”. In the data set with NB4 cells [3], the “Annexin V staining of NB4 cells” value was “stained positive by Annexin V”. For the same compound, in data set [4], the “numbers of tumor-infiltrating T cells or NK cells” value is recorded as “little effect”. Besides, the “PTPase activity of Flag-PRL-3 immunocomplexes from treated cells” value at intracellular Flag-PRL-3 is on record as “lack of PTPase activity”.
